Laboratory results as given in patent US20220315554A1, “COMPOUNDS COMPRISING A […] LIGAND AND USE THEREOF” (priority 2019, published 2022).
Numbered stars: 1 amine (or outer) side, 2 acyl side, 3 side chain; on linkers, the order of the positions; unused ones are H or OH. Bridge positions count the residues as written; N and C are the ends. Square brackets hold non-standard residues; d marks the D form. Peptide text beside a SMILES is read from it. * marks the point of attachment. X42 = NCCNCC(CNCCN)C(=O)N[C@@H](CCC(=O)NCCCOCCOCCOCCCN*)C(=O)O; X12 = NCCNCC(CNCCN)C(=O)NCCCOCCOCCOCCCN*; X40 = NCCNCC(CNCCN)C(=O)NCCS(=O)(=O)CCN*; γGlu = O=C(O)[C@H](CCC(=O)[*:2])N[*:1]; mXylylene = c1cc(C[*:1])cc(C[*:2])c1; Suc = O=C(CCC(=O)[*:2])[*:1]; X18 = NCCNCC(CNCCN)C(=O)*; Nle = CCCC[C@H](N)C(=O)O

Key:
[1] = biological target: T1, FAP-expressing human WI-38 fibroblasts (Homo sapiens, UniProt Q12884); assay: Competitive FACS binding assay; details: pIC50 Category (FACS), competition with 3 nM Cy5-labeled compound, 4° C., 1 hour
T1 construct: FAP-expressing human WI-38 fibroblasts (ECACC) were cultured in EMEM; host or cells: WI-38 human fibroblasts
T1 sequence (Q12884 1-760): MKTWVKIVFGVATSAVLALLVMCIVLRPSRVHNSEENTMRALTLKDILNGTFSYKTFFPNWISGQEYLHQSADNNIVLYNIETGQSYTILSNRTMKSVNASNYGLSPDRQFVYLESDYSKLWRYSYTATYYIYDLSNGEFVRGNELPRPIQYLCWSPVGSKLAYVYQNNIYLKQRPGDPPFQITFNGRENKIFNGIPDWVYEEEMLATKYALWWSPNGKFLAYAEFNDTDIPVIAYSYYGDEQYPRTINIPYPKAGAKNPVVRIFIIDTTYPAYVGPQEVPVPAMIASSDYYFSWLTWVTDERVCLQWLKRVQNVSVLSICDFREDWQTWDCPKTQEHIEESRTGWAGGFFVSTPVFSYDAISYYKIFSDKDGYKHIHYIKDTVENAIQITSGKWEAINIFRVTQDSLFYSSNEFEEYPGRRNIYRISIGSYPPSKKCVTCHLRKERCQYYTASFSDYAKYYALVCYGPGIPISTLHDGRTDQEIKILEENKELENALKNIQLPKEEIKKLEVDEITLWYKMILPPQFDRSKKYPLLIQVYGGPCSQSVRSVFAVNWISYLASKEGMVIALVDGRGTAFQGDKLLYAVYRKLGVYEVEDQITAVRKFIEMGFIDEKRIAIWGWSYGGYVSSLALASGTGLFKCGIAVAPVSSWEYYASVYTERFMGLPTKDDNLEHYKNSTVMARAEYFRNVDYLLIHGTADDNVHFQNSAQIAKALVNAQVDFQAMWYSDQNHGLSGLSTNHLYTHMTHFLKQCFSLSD
Method: Cells were analyzed in an Attune NxT flow cytometer. […]

[2] = biological target: T2, Human recombinant FAP (Homo sapiens, UniProt Q12884); assay: FRET-based FAP protease activity assay; type: biochemical; design: purchased R&D systems 3715-SE; details: pIC50 Category (Activity), FRET substrate, 37° C.
T2 sequence (Q12884 1-760): T1 sequence (Q12884 1-760)

SMILES | IC50 [1] [nM] | IC50 [2] [nM]
CCCC[C@H](NC(=O)CC[C@H](NC(=O)C(CNCCN)CNCCN)C(=O)O)C(=O)N[C@H]1CSCc2cccc(c2)CSC[C@@H](C(=O)O)NC(=O)[C@H](Cc2ccccc2)NC(=O)[C@H](CCC(=O)O)NC(=O)[C@H]([C@@H](C)O)NC(=O)[C@@H]2CCCN2C(=O)[C@@H]2CCCN2C1=O [3BP-4230, N4Ac-gGlu-Nle-[Cys-(3MeBn)-Pro-Pro-Thr-Glu-Phe-Cys]-OH] ({X18-γGlu}-[Nle]CPPTEFC-OH; linker 2-8 via mXylylene) | > 1000 | > 1000
C[C@@H](O)[C@@H]1NC(=O)[C@@H]2CCCN2C(=O)[C@@H]2CCCN2C(=O)[C@@H](NC(=O)[C@H](CCC(=O)O)NC(=O)CCC(=O)NCCCOCCOCCOCCCNC(=O)C(CNCCN)CNCCN)CSCc2cccc(c2)CSC[C@@H](C(=O)O)NC(=O)[C@H](Cc2ccccc2)NC(=O)[C@H](CCC(=O)O)NC1=O [3BP-4233, N4Ac-Ttds-Glu-[Cys-(3MeBn)-Pro-Pro-Thr-Glu-Phe-Cys]-OH] ({X12-Suc}-ECPPTEFC-OH; linker 2-8 via mXylylene) | 100 to 794 | > 1000
CCCC[C@H](NC(=O)CCC(=O)NCCS(=O)(=O)CCNC(=O)C(CNCCN)CNCCN)C(=O)N[C@H]1CSCc2cccc(c2)CSC[C@@H](C(=O)O)NC(=O)[C@H](Cc2ccccc2)NC(=O)[C@H](CCC(=O)O)NC(=O)[C@H]([C@@H](C)O)NC(=O)[C@@H]2CCCN2C(=O)[C@@H]2CCCN2C1=O [3BP-4243, N4Ac-Efa-Nle-[Cys-(3MeBn)-Pro-Pro-Thr-Glu-Phe-Cys]-OH] ({X40-Suc}-[Nle]CPPTEFC-OH; linker 2-8 via mXylylene) | 10 to 79.4 | 10 to 79.4
CCCC[C@H](NC(=O)CC[C@H](NC(=O)C(CNCCN)CNCCN)C(=O)O)C(=O)N[C@H]1CSCc2cccc(c2)CSC[C@@H](C(=O)O)NC(=O)[C@H](Cc2ccccc2)NC(=O)[C@H](CCC(N)=O)NC(=O)[C@H]([C@@H](C)O)NC(=O)[C@@H]2CCCN2C(=O)[C@@H]2CCCN2C1=O [3BP-4244, N4Ac-gGlu-Nle-[Cys-(3MeBn)-Pro-Pro-Thr-Gln-Phe-Cys]-OH] | > 1000 | > 1000
CCCC[C@H](NC(=O)CCC(=O)NCCCOCCOCCOCCCNC(=O)CC[C@H](NC(=O)C(CNCCN)CNCCN)C(=O)O)C(=O)N[C@H]1CSCc2cccc(c2)CSC[C@@H](C(=O)O)NC(=O)[C@H](Cc2ccccc2)NC(=O)[C@H](CCC(=O)O)NC(=O)[C@H]([C@@H](C)O)NC(=O)[C@@H]2CCCN2C(=O)[C@@H]2CCCN2C1=O [3BP-4245, N4Ac-gGlu-Ttds-Nle-[Cys-(3MeBn)-Pro-Pro-Thr-Gln-Phe-Cys]-OH] ({X42-Suc}-[Nle]CPPTEFC-OH; linker 2-8 via mXylylene) | 10 to 79.4 | 10 to 79.4
CCCC[C@H](NC(=O)CCC(=O)NCCCOCCOCCOCCCNC(=O)[C@H](CCC(=O)NC[C@H](O)[C@@H](O)[C@H](O)[C@H](O)CO)NC(=O)[C@H](CCC(=O)NC[C@H](O)[C@@H](O)[C@H](O)[C@H](O)CO)NC(=O)C(CNCCN)CNCCN)C(=O)N[C@H]1CSCc2cccc(c2)CSC[C@@H](C(=O)O)NC(=O)[C@H](Cc2ccccc2)NC(=O)[C@H](CCC(=O)O)NC(=O)[C@H]([C@@H](C)O)NC(=O)[C@@H]2CCCN2C(=O)[C@@H]2CCCN2C1=O [3BP-4266, N4Ac-Glu(AGLU)-Glu(AGLU)-Ttds-Nle-[Cys-(3MeBn)-Pro-Pro-Thr-Glu-Phe-Cys]-OH] | 10 to 79.4 | 10 to 79.4
CCCCCC(=O)N[C@H]1CSCc2cc(CSCCNC(=O)CN3CCN4CCN(CC(=O)O)CCN(CC3)CC(=O)[O][Cu][O]C(=O)C4)cc(c2)CSC[C@@H](C(=O)O)NC(=O)[C@H](Cc2ccccc2)NC(=O)[C@H](CCC(N)=O)NC(=O)[C@H]([C@@H](C)O)NC(=O)[C@@H]2CCCN2C(=O)[C@@H]2CCCN2C1 [3BP-4293, Copper(II)-Complex of Hex-[Cys(tMeBn(DOTA-AET))-Pro-Pro-Thr-Gln-Phe-Cys]-OH] | < 10 | < 10
CCCCCC(=O)N[C@H]1CSCc2cc(CSCCNC(=O)CCC(=O)NCCCOCCOCCOCCCNC(=O)C(CNCCN)CNCCN)cc(c2)CSC[C@@H](C(=O)O)NC(=O)[C@H](Cc2ccccc2)NC(=O)[C@H](CCC(N)=O)NC(=O)[C@H]([C@@H](C)O)NC(=O)[C@@H]2CCCN2C(=O)[C@@H]2CCCN2C1=O [3BP-4299, Hex-[Cys-(tMeBn(N4Ac-Ttds-AET))-Pro-Pro-Thr-Gln-Phe-Cys]-OH] | < 10 | < 10
CCCCCC(=O)N[C@H]1CSCc2cc(CSCCNC(=O)CCOCCOCCOCCOCCOCCOCCNC(=O)C(CNCCN)CNCCN)cc(c2)CSC[C@@H](C(=O)O)NC(=O)[C@H](Cc2ccccc2)NC(=O)[C@H](CCC(N)=O)NC(=O)[C@H]([C@@H](C)O)NC(=O)[C@@H]2CCCN2C(=O)[C@@H]2CCCN2C1=O [3BP-4300, Hex-[Cys-(tMeBn(N4Ac-PEG6-AET))-Pro-Pro-Thr-Gln-Phe-Cys]-OH] | 10 to 79.4 | < 10
CCCCCC(=O)N[C@H]1CSCc2cc(CSCCNC(=O)[C@H](CO)NC(=O)[C@H](CO)NC(=O)[C@H](CO)NC(=O)CS)cc(c2)CSC[C@@H](C(=O)O)NC(=O)[C@H](Cc2ccccc2)NC(=O)[C@H](CCC(N)=O)NC(=O)[C@H]([C@@H](C)O)NC(=O)[C@@H]2CCCN2C(=O)[C@@H]2CCCN2C1=O [3BP-4301, Hex-[Cys-(tMeBn(H-SAc-Ser-Ser-Ser-AET))-Pro-Pro-Thr-Gln-Phe-Cys]-OH] | 10 to 79.4 | 10 to 79.4
CCCCCC(=O)N[C@H]1CSCc2cc(CSCCNC(=O)CCC(=O)NCCCOCCOCCOCCCNC(=O)[C@H](CS)NC(=O)[C@H](CC(=O)O)NC(=O)[C@@H](N)CC(=O)O)cc(c2)CSC[C@@H](C(=O)O)NC(=O)[C@H](Cc2ccccc2)NC(=O)[C@H](CCC(N)=O)NC(=O)[C@H]([C@@H](C)O)NC(=O)[C@@H]2CCCN2C(=O)[C@@H]2CCCN2C1=O [3BP-4302, Hex-[Cys-(tMeBn(H-Asp-Asp-Cys-Ttds-AET))-Pro-Pro-Thr-Gln-Phe-Cys]-OH] | 100 to 794 | 10 to 79.4
CCCCCC(=O)N[C@H]1CSCc2cc(CSCCNC(=O)[C@H](CS)NC(=O)[C@H](CC(=O)O)NC(=O)[C@@H](N)CC(=O)O)cc(c2)CSC[C@@H](C(=O)O)NC(=O)[C@H](Cc2ccccc2)NC(=O)[C@H](CCC(N)=O)NC(=O)[C@H]([C@@H](C)O)NC(=O)[C@@H]2CCCN2C(=O)[C@@H]2CCCN2C1=O [3BP-4303, Hex-[Cys-(tMeBn(H-Asp-Asp-Cys-AET))-Pro-Pro-Thr-Gln-Phe-Cys]-OH] | 100 to 794 | 10 to 79.4
CCCCCC(=O)N[C@H]1CSCc2cc(CSCCNC(=O)CCOCCOCCOCCOCCOCCOCCNC(=O)[C@H](CO)NC(=O)[C@H](CO)NC(=O)[C@H](CO)NC(=O)CS)cc(c2)CSC[C@@H](C(=O)O)NC(=O)[C@H](Cc2ccccc2)NC(=O)[C@H](CCC(N)=O)NC(=O)[C@H]([C@@H](C)O)NC(=O)[C@@H]2CCCN2C(=O)[C@@H]2CCCN2C1=O [3BP-4308, Hex-[Cys-(tMeBn(H-SAc-Ser-Ser-Ser-Ttds-AET))-Pro-Pro-Thr-Gln-Phe-Cys]-OH] | 10 to 79.4 | 10 to 79.4
CCCCCC(=O)N[C@H]1CSCc2cc(CSCCNC(=O)CN(CCN(CCN(CC(=O)O)CC(=O)O)CC(=O)O)CC(=O)O)cc(c2)CSC[C@@H](C(=O)O)NC(=O)[C@H](Cc2ccccc2)NC(=O)[C@H](CCC(N)=O)NC(=O)[C@H]([C@@H](C)O)NC(=O)[C@@H]2CCCN2C(=O)[C@@H]2CCCN2C1=O [3BP-4309, Hex-[Cys-(tMeBn(DTPA2-AET))-Pro-Pro-Thr-Gln-Phe-Cys]-OH] | 10 to 79.4 | 10 to 79.4
CCCCCC(=O)N[C@H]1CSCc2cc(CSCCNC(=O)CN3CCN(CC(=O)O)CCN(CC(=O)O)CC3)cc(c2)CSC[C@@H](C(=O)O)NC(=O)[C@H](Cc2ccccc2)NC(=O)[C@H](CCC(N)=O)NC(=O)[C@H]([C@@H](C)O)NC(=O)[C@@H]2CCCN2C(=O)[C@@H]2CCCN2C1=O [3BP-4310, Hex-[Cys-(tMeBn(NOTA-AET))-Pro-Pro-Thr-Gln-Phe-Cys]-OH] | < 10 | < 10
CCCCCC(=O)N[C@H]1CSCc2cc(CSCCNC(=O)c3ccc(NN)nc3)cc(c2)CSC[C@@H](C(=O)O)NC(=O)[C@H](Cc2ccccc2)NC(=O)[C@H](CCC(N)=O)NC(=O)[C@H]([C@@H](C)O)NC(=O)[C@@H]2CCCN2C(=O)[C@@H]2CCCN2C1=O [3BP-4342, Hex-[Cys-(tMeBn(H-HYNIC-AET))-Pro-Pro-Thr-Gln-Phe-Cys]-OH] | 10 to 79.4 | < 10
CCCCCC(=O)N[C@H]1CSCc2cc(CSCCNC(=O)CN3CCN4CCN(CC(=O)O)CCN(CC3)CC(=O)[O][Zn][O]C(=O)C4)cc(c2)CSC[C@@H](C(=O)O)NC(=O)[C@H](Cc2ccccc2)NC(=O)[C@H](CCC(N)=O)NC(=O)[C@H]([C@@H](C)O)NC(=O)[C@@H]2CCCN2C(=O)[C@@H]2CCCN2C1 [3BP-4343, Zink-Complex of Hex-[Cys(tMeBn(DOTA-AET))-Pro-Pro-Thr-Gln-Phe-Cys]-OH] | < 10 | < 10
